Experiments:
Format in all cases: in vivo
Echinochloa crusgalli = assay: Weeding effect in post-emergence stage; conditions: for Weeding effect in post-emergence stage, Echinochloa crusgalli: level of fresh weight growth control rate; for activity level (growth control rate) Echinochloa crusgalli: post-emergence, 7.5 g/ha, 3 weeks
Method in brief: (§1)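 Pot-grown greenhouse plants sprayed at 2–3 leaf stage, 2 weeks after sowing, with compound in acetone/Tween 80 plus methyl oleate emulsifiable concentrate (1.5 liter/ha) at 500–7.5 g/ha. Growth control rated 3 weeks after treatment; mean of three replicates.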

Amaranthus retroflexus [1] = assay: Weeding effect in post-emergence stage; conditions: 7.5 g/ha, 3 weeks
Method in brief: as §1

Digitaria sanguinalis = assay: Weeding effect in post-emergence stage; conditions: for Weeding effect in post-emergence stage, Digitaria sanguinalis: level of fresh weight growth control rate
Method in brief: as §1

Eleusine indica = assay: Weeding effect in post-emergence stage; conditions: for Weeding effect in post-emergence stage, Eleusine indica: level of fresh weight growth control rate; for activity level (growth control rate) Eleusine indica: post-emergence, 7.5 g/ha, 3 weeks
Method in brief: as §1

Alopecurus japonicus = assay: Weeding effect in post-emergence stage; conditions: for Weeding effect in post-emergence stage, Alopecurus japonicus: level of fresh weight growth control rate
Method in brief: as §1

Abutilon theophrasti [2] = assay: Weeding effect in post-emergence stage; conditions: level of fresh weight growth control rate
Method in brief: as §1

Setaria viridis [3] = assay: Weeding effect in post-emergence stage; conditions: for Weeding effect in post-emergence stage, Setaria viridis: level of fresh weight growth control rate
Method in brief: as §1

Soybeans = assay: Pre-emergence stage, crop selectivity; conditions: 30 g/ha, 4 weeks
Method in brief: (§2)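 Test compounds were dissolved in acetone with tween 80, diluted with water and sprayed right after sowing, with seeds covered by 0.5-2 cm of soil. Rates were 500 to 7.5 g/ha. Growth control was scored against activity-level criteria after 4 weeks in the greenhouse.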

Peanut = assay: Pre-emergence stage, crop selectivity; conditions: 30 g/ha, 4 weeks
Method in brief: as §2

cotton = assay: Pre-emergence stage, crop selectivity; conditions: 30 g/ha, 4 weeks
Method in brief: as §2

corn = assay: Pre-emergence stage, crop selectivity; conditions: 30 g/ha, 4 weeks
Method in brief: as §2

Veronica didyma Tenore = assay: Weeding effect in pre-emergence stage; conditions: 30 g/ha, 4 weeks
Method in brief: as §2

Abutilon theophrasti [4] = assay: Weeding effect in pre-emergence stage; conditions: 30 g/ha, 4 weeks
Method in brief: as §2

Amaranthus retroflexus [5] = assay: Weeding effect in pre-emergence stage; conditions: 30 g/ha, 4 weeks
Method in brief: as §2

Capsella bursa-pastoris = assay: Weeding effect in pre-emergence stage; conditions: 30 g/ha, 4 weeks
Method in brief: as §2

Descurainia sophia = assay: Weeding effect in pre-emergence stage; conditions: 30 g/ha, 4 weeks
Method in brief: as §2

Setaria viridis [6] = assay: Weeding effect in pre-emergence stage; conditions: 30 g/ha, 4 weeks
Method in brief: as §2

[7] = Dose 15 g/ha, fresh weight control rate level

| SMILES | Weeding effect in post-emergence stage, Echinochloa crusgalli (Echinochloa crusgalli; Dose 15 g/ha) | activity level (growth control rate) Echinochloa crusgalli (Echinochloa crusgalli) | activity level (growth control rate) Amaranthus retroflexus (Amaranthus retroflexus [1]) | Weeding effect in post-emergence stage, Digitaria sanguinalis (Digitaria sanguinalis; Dose 15 g/ha) | Weeding effect in post-emergence stage, Eleusine indica (Eleusine indica; Dose 15 g/ha) | activity level (growth control rate) Eleusine indica (Eleusine indica) | Weeding effect in post-emergence stage, Alopecurus japonicus (Alopecurus japonicus; Dose 15 g/ha) | Weeding effect in post-emergence stage, Abutilon theophrasti (Abutilon theophrasti [2]; Dose 15 g/ha) | Weeding effect in post-emergence stage, Setaria viridis (Setaria viridis [3]; Dose 15 g/ha) | other results |
| --- | --- | --- | --- | --- | --- | --- | --- | --- | --- | --- |
| COC(=O)C(C)O/N=C/c1cc(-n2c(=O)cc(C(F)(F)F)n(C)c2=O)c(F)cc1Cl (racemic) [Compound 194] | 5 (Level 5: growth control rate is above 85%) | 4 (Level 4: growth control rate is greater than or equal to 60% and less than 85%) | 5 (Level 5: growth control rate is above 85%) | 5 (Level 5: growth control rate is above 85%) | 5 (Level 5: growth control rate is above 85%) | 4 (Level 4: growth control rate is greater than or equal to 60% and less than 85%) | 5 (Level 5: growth control rate is above 85%) | 5 (Level 5: growth control rate is above 85%) | 5 (Level 5: growth control rate is above 85%) | Weeding effect in post-emergence stage, Echinochloa crusgalli (Echinochloa crusgalli; Dose 7.5 g/ha): 5 (Level 5: growth control rate is above 85%); Weeding effect in post-emergence stage, Digitaria sanguinalis (Digitaria sanguinalis; Dose 7.5 g/ha): 5 (Level 5: growth control rate is above 85%); Weeding effect in post-emergence stage, Eleusine indica (Eleusine indica; Dose 7.5 g/ha): 5 (Level 5: growth control rate is above 85%); Weeding effect in post-emergence stage, Alopecurus japonicus (Alopecurus japonicus; Dose 7.5 g/ha): 4 (Level 4: growth control rate is greater than or equal to 60% and less than 85%); Weeding effect in post-emergence stage, Abutilon theophrasti (Abutilon theophrasti [2]; Dose 7.5 g/ha): 5 (Level 5: growth control rate is above 85%); Weeding effect in post-emergence stage, Setaria viridis (Setaria viridis [3]; Dose 7.5 g/ha): 5 (Level 5: growth control rate is above 85%) |
| COC(=O)[C@@H](C)O/N=C/c1cc(-n2c(=O)n(C)c(=S)n(C)c2=O)c(F)cc1Cl [1(R)] | 5 (Level 5: growth control rate is above 85%) | 4 (Level 4: growth control rate is greater than or equal to 60% and less than 85%) | 5 (Level 5: growth control rate is above 85%) | 5 (Level 5: growth control rate is above 85%) | 5 (Level 5: growth control rate is above 85%) | 5 (Level 5: growth control rate is above 85%) | 5 (Level 5: growth control rate is above 85%) | 5 (Level 5: growth control rate is above 85%) | 5 (Level 5: growth control rate is above 85%) | plant damage level Soybeans (Soybeans): 0 (Level 0: growth control rate is less than 5%); plant damage level Peanut (Peanut): 0 (Level 0: growth control rate is less than 5%); plant damage level Cotton (cotton): 0 (Level 0: growth control rate is less than 5%); plant damage level Corn (corn): 0 (Level 0: growth control rate is less than 5%); activity level (growth control rate) Veronica didyma Tenore (Veronica didyma Tenore): 5 (Level 5: growth control rate is above 85%); activity level (growth control rate) Abutilon theophrasti (Abutilon theophrasti [4]): 5 (Level 5: growth control rate is above 85%); activity level (growth control rate) Amaranthus retroflexus (Amaranthus retroflexus [5]): 5 (Level 5: growth control rate is above 85%); activity level (growth control rate) Capsella bursa-pastoris (Capsella bursa-pastoris): 5 (Level 5: growth control rate is above 85%); activity level (growth control rate) Descurainia sophia (Descurainia sophia): 5 (Level 5: growth control rate is above 85%); activity level (growth control rate) Setaria viridis (Setaria viridis [6]): 5 (Level 5: growth control rate is above 85%) |
| COC(=O)C(C)O/N=C/c1cc(-n2c(=O)n(C)c(=S)n(C)c2=O)c(F)cc1Cl (stereo not drawn) [Compound 1] | 5 (Level 5: growth control rate is above 85%) | 3 (Level 3: growth control rate is greater than or equal to 40% and less than 60%) | 3 (Level 3: growth control rate is greater than or equal to 40% and less than 60%) | 5 (Level 5: growth control rate is above 85%) | 5 (Level 5: growth control rate is above 85%) | 3 (Level 3: growth control rate is greater than or equal to 40% and less than 60%) | 5 (Level 5: growth control rate is above 85%) | 5 (Level 5: growth control rate is above 85%) | 5 (Level 5: growth control rate is above 85%) |  |
| COC(=O)CO/N=C/c1cc(-n2c(=O)cc(C(F)(F)F)n(C)c2=O)c(F)cc1Cl [Control compound D, reference compound] |  | 1 (Level 1: growth control rate is greater than or equal to 5% and less than 20%) | 2 (Level 2: growth control rate is greater than or equal to 20% and less than 40%) |  |  | 2 (Level 2: growth control rate is greater than or equal to 20% and less than 40%) |  |  |  | Weeding effect in post-emergence stage, Echinochloa crusgalli (level) (Echinochloa crusgalli; [7]): 4 (Level 4: growth control rate is greater than or equal to 60% and less than 85%); Weeding effect in post-emergence stage, Digitaria sanguinalis (level) (Digitaria sanguinalis; [7]): 3 (Level 3: growth control rate is greater than or equal to 40% and less than 60%); Weeding effect in post-emergence stage, Eleusine indica (level) (Eleusine indica; [7]): 3 (Level 3: growth control rate is greater than or equal to 40% and less than 60%); Weeding effect in post-emergence stage, Alopecurus japonicus (level) (Alopecurus japonicus; [7]): 2 (Level 2: growth control rate is greater than or equal to 20% and less than 40%); Weeding effect in post-emergence stage, Setaria viridis (level) (Setaria viridis [3]; [7]): 3 (Level 3: growth control rate is greater than or equal to 40% and less than 60%) |
